# Results from PubChem BioAssay (NCI).
#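 Where inhibition never reached the appropriate level, the endpoint shown equals the highest concentration tested. Otherwise, values were interpolated linearly from a five-concentration, 48-hour dose response in 96-well plates. The concentration for full growth arrest is given as TGI.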
# Assays:
# Experiment in all cases: NCI tumour cell line growth inhibition, 48 h
# 786-0 renal = system: 786-0 renal
# A498 renal = system: A498 renal
# A549 NSCLC = system: A549 NSCLC
# ACHN renal = system: ACHN renal
# CAKI-1 renal = system: CAKI-1 renal
# CCRF-CEM leukemia = system: CCRF-CEM leukemia
# COLO 205 colon = system: COLO 205 colon
# DMS 114 small cell lung = system: DMS 114 small cell lung
# DMS 273 small cell lung = system: DMS 273 small cell lung
# EKVX NSCLC = system: EKVX NSCLC
# HCT-116 colon = system: HCT-116 colon
# HCT-15 colon = system: HCT-15 colon
# HL-60(TB) leukemia = system: HL-60(TB) leukemia
# HOP-18 NSCLC = system: HOP-18 NSCLC
# HOP-62 NSCLC = system: HOP-62 NSCLC
# HOP-92 NSCLC = system: HOP-92 NSCLC
# HT29 colon = system: HT29 colon
# IGROV1 ovarian = system: IGROV1 ovarian
# K-562 leukemia = system: K-562 leukemia
# KM12 colon = system: KM12 colon
# KM20L2 colon = system: KM20L2 colon
# LOX IMVI melanoma = system: LOX IMVI melanoma
# LXFL 529 NSCLC = system: LXFL 529 NSCLC
# M14 melanoma = system: M14 melanoma
# M19-MEL melanoma = system: M19-MEL melanoma
# MALME-3M melanoma = system: MALME-3M melanoma
# MOLT-4 leukemia = system: MOLT-4 leukemia
# NCI-H460 lung = system: NCI-H460 lung
# NCI-H522 lung = system: NCI-H522 lung
# OVCAR-3 ovarian = system: OVCAR-3 ovarian
# OVCAR-4 ovarian = system: OVCAR-4 ovarian
# OVCAR-5 ovarian = system: OVCAR-5 ovarian
# OVCAR-8 ovarian = system: OVCAR-8 ovarian
# RPMI-8226 leukemia = system: RPMI-8226 leukemia
# SF-268 CNS = system: SF-268 CNS
# SF-295 CNS = system: SF-295 CNS
# SF-539 CNS = system: SF-539 CNS
# SK-MEL-2 melanoma = system: SK-MEL-2 melanoma
# SK-MEL-5 melanoma = system: SK-MEL-5 melanoma
# SK-OV-3 ovarian = system: SK-OV-3 ovarian
# SN12C renal = system: SN12C renal
# SNB-19 CNS = system: SNB-19 CNS
# SNB-75 CNS = system: SNB-75 CNS
# SNB-78 CNS = system: SNB-78 CNS
# SW-620 colon = system: SW-620 colon
# TK-10 renal = system: TK-10 renal
# U251 CNS = system: U251 CNS
# UACC-257 melanoma = system: UACC-257 melanoma
# UACC-62 melanoma = system: UACC-62 melanoma
# UO-31 renal = system: UO-31 renal
# XF 498 CNS = system: XF 498 CNS
# DLD-1 colon = system: DLD-1 colon
# HCC-2998 colon = system: HCC-2998 colon
# NCI-H226 lung = system: NCI-H226 lung
# NCI-H23 lung = system: NCI-H23 lung
# RXF 393 renal = system: RXF 393 renal
# RXF-631 renal = system: RXF-631 renal
# SK-MEL-28 melanoma = system: SK-MEL-28 melanoma
# SR leukemia = system: SR leukemia
compound,measurement,setting,value
Cc1cc(NS(=O)(=O)c2ccc(NC(=O)c3ccc(Cl)c4c(Nc5ccc(S(=O)(=O)Nc6cc(C)on6)cc5)c5ccccc5nc34)cc2)no1,TGI,786-0 renal,32.2 µM
same,TGI,A498 renal,47.4 µM
same,TGI,A549 NSCLC,62.4 µM
same,TGI,ACHN renal,53.7 µM
same,TGI,CAKI-1 renal,30.6 µM
same,TGI,CCRF-CEM leukemia,51.8 µM
same,TGI,COLO 205 colon,41.4 µM
same,TGI,DMS 114 small cell lung,42.5 µM
same,TGI,DMS 273 small cell lung,42 µM
same,TGI,EKVX NSCLC,64.9 µM
same,TGI,HCT-116 colon,27.4 µM
same,TGI,HCT-15 colon,43 µM
same,TGI,HL-60(TB) leukemia,49.5 µM
same,TGI,HOP-18 NSCLC,30.4 µM
same,TGI,HOP-62 NSCLC,55 µM
same,TGI,HOP-92 NSCLC,46.2 µM
same,TGI,HT29 colon,41.6 µM
same,TGI,IGROV1 ovarian,49.7 µM
same,TGI,K-562 leukemia,64.3 µM
same,TGI,KM12 colon,44.3 µM
same,TGI,KM20L2 colon,40 µM
same,TGI,LOX IMVI melanoma,41.6 µM
same,TGI,LXFL 529 NSCLC,48.5 µM
same,TGI,M14 melanoma,49.4 µM
same,TGI,M19-MEL melanoma,50.3 µM
same,TGI,MALME-3M melanoma,48.7 µM
same,TGI,MOLT-4 leukemia,77.3 µM
same,TGI,NCI-H460 lung,53.9 µM
same,TGI,NCI-H522 lung,33.2 µM
same,TGI,OVCAR-3 ovarian,33.4 µM
same,TGI,OVCAR-4 ovarian,81.8 µM
same,TGI,OVCAR-5 ovarian,38.6 µM
same,TGI,OVCAR-8 ovarian,> 100 µM
same,TGI,RPMI-8226 leukemia,72.7 µM
same,TGI,SF-268 CNS,42.3 µM
same,TGI,SF-295 CNS,57.4 µM
same,TGI,SF-539 CNS,32.3 µM
same,TGI,SK-MEL-2 melanoma,50.5 µM
same,TGI,SK-MEL-5 melanoma,55.4 µM
same,TGI,SK-OV-3 ovarian,42.2 µM
same,TGI,SN12C renal,41.7 µM
same,TGI,SNB-19 CNS,32.4 µM
same,TGI,SNB-75 CNS,24.5 µM
same,TGI,SNB-78 CNS,84.1 µM
same,TGI,SW-620 colon,66.1 µM
same,TGI,TK-10 renal,71.1 µM
same,TGI,U251 CNS,32.8 µM
same,TGI,UACC-257 melanoma,43.5 µM
same,TGI,UACC-62 melanoma,34.3 µM
same,TGI,UO-31 renal,37.1 µM
same,TGI,XF 498 CNS,75.9 µM
Nc1nnc(N)n1N,TGI,786-0 renal,> 100 µM
same,TGI,A549 NSCLC,> 100 µM
same,TGI,ACHN renal,> 100 µM
same,TGI,CAKI-1 renal,> 100 µM
same,TGI,CCRF-CEM leukemia,> 100 µM
same,TGI,COLO 205 colon,> 100 µM
same,TGI,DLD-1 colon,> 100 µM
same,TGI,DMS 114 small cell lung,> 100 µM
same,TGI,DMS 273 small cell lung,> 100 µM
same,TGI,EKVX NSCLC,> 100 µM
same,TGI,HCC-2998 colon,> 100 µM
same,TGI,HCT-116 colon,> 100 µM
same,TGI,HCT-15 colon,> 100 µM
same,TGI,HL-60(TB) leukemia,> 100 µM
same,TGI,HOP-62 NSCLC,> 100 µM
same,TGI,HOP-92 NSCLC,> 100 µM
same,TGI,HT29 colon,> 100 µM
same,TGI,IGROV1 ovarian,> 100 µM
same,TGI,K-562 leukemia,> 100 µM
same,TGI,KM12 colon,> 100 µM
same,TGI,LOX IMVI melanoma,> 100 µM
same,TGI,LXFL 529 NSCLC,> 100 µM
same,TGI,M14 melanoma,> 100 µM
same,TGI,M19-MEL melanoma,> 100 µM
same,TGI,MALME-3M melanoma,> 100 µM
same,TGI,MOLT-4 leukemia,> 100 µM
same,TGI,NCI-H226 lung,> 100 µM
same,TGI,NCI-H23 lung,> 100 µM
same,TGI,NCI-H460 lung,> 100 µM
same,TGI,NCI-H522 lung,> 100 µM
same,TGI,OVCAR-4 ovarian,> 100 µM
same,TGI,OVCAR-5 ovarian,> 100 µM
same,TGI,RPMI-8226 leukemia,> 100 µM
same,TGI,RXF 393 renal,> 100 µM
same,TGI,RXF-631 renal,> 100 µM
same,TGI,SF-268 CNS,> 100 µM
same,TGI,SF-295 CNS,> 100 µM
same,TGI,SF-539 CNS,> 100 µM
same,TGI,SK-MEL-2 melanoma,> 100 µM
same,TGI,SK-MEL-28 melanoma,> 100 µM
same,TGI,SK-MEL-5 melanoma,> 100 µM
same,TGI,SK-OV-3 ovarian,> 100 µM
same,TGI,SNB-19 CNS,> 100 µM
same,TGI,SNB-75 CNS,> 100 µM
same,TGI,SNB-78 CNS,> 100 µM
same,TGI,SR leukemia,> 100 µM
same,TGI,SW-620 colon,> 100 µM
same,TGI,TK-10 renal,> 100 µM
same,TGI,U251 CNS,> 100 µM
same,TGI,UACC-257 melanoma,> 100 µM
same,TGI,UACC-62 melanoma,> 100 µM
same,TGI,UO-31 renal,> 100 µM
same,TGI,XF 498 CNS,> 100 µM
